# Laboratory results: PubChem BioAssay AID1963841 (Molecular Pharmacology Branch, DTP, NCI, 2024)
# Where “and” joins values, the source holds several entries; their conditions need not be identical. Equal entries are not always repeated.
# Tested on: 439559-082-T-J2-PDC spheroid viability
# Assay: Anticancer human tumor 439559-082-T-J2-PDC patient-derived colon adenocarcinoma cell line growth inhibition [POLQ]
# Conditions: spheroids with HUVEC and MSC; for viability, T/C: stronger effect = lower value
# Method: Multicellular complex tumor spheroid response to Polymerase (POL) inhibitors (novobiocin, ART-558, RP6685) in combination with a variety of drugs and investigational agents in selected tumor cell lines
# The POL inhibitors (novobiocin, ART-558, and RP6685) were evaluated both individually and in combination with standard of care and investigational anticancer small molecules within a complex spheroid model of solid tumors. . Complex spheroids include a stromal component modeled by human endothelial cells (HUVEC) and fibroblasts modeled by human mesenchymal stem cells (MSCs). The concentration ranges selected for each drug and investigational agent were based upon clinically achievable concentrations if the clinical Cmax of the agent was known.
# Compounds. The drugs and investigational agents: novobiocin (NSC847541), ART-558 (NSC835418), RP-6685 (NSC848927), peposertib (NSC802822), ceralasertib (NSC780249), elimusertib (NSC800525), camonsertib (NSC841442), AZD-1390 (NSC803789), olaparib (NSC753686), talazoparib (NSC767125), rucaparib (NSC756644), sotorasib (NSC818433), MRTX-1133 (NSC836407), SN-38 (NSC673596), topotecan (NSC609699), epotoside (NSC141540), doxorubicin (NSC123127), gemcitabine (NSC613327), 5-fluorouracil (NSC19893), paclitaxel (NSC125973), vemurafenib (NSC761431), MSA-2 (NSC828583), SN-011 (NSC837082), adavosertib (NSC754352), prexasertib (NSC758257), carboplatin (NSC241240) and oxaliplatin (NSC266046), were obtained from the National Cancer Institute (NCI) Developmental Therapeutics Program Chemical Repository (21). The FDA-approved anticancer drug set is available from the Developmental Therapeutics Program at https://dtp.cancer.gov/organization/dscb/obtaining/. […] The stock solutions were prepared in dimethyl sulfoxide (DMSO, Sigma-Aldrich, St. Louis, MO, cat. D2650), except for the platinum compounds which were prepared in saline (Quality Biological, Gaithersburg, MD, cat. 114-055-101), at 800-fold the tested concentration and stored at -70 degrees C prior to their use. All drugs and investigational agents were tested over a range starting from a high concentration at or near the clinical Cmax and decreasing in half-log increments. If the clinical Cmax for an agent had not been determined, the highest concentration tested was 10 microM, except for SN-38, which was tested at a high concentration of 1 microM.
# Cell Culture. All cells were maintained in an incubator at 37 degrees C and 5% CO2 with 95% humidity. The PDC lines were cultured according to standard operating procedures established by the NCI PDMR (https://pdmr.cancer.gov). Table 3 of the manuscript, lists the cell lines along with the number of the three cell types plated to form the mct-spheroids and media for tumor cell growth. After thawing, all PDC lines, except 997537-175-T-J1-PDC and 415267-285-R-J2-PDC, were cultured in Matrigel-coated flasks prepared with a working solution of 1X Ham's F-12 nutrient mix, without supplementation (Thermo Fisher Scientific, cat. 11765054), 100 U/mL penicillin-streptomycin (Thermo Fisher Scientific, cat. 15140122), and 2.5% Matrigel (Corning Inc., Corning, NY, cat. 354248) for the first three passages. The two PDC lines 997537-175-T-J1-PDC and 415267-285-R-J2-PDC were cultured on uncoated flasks. The 857933-349-R-J2-PDC line was cultured in 6C/Colon 1B media containing advanced DMEM/F-12 (Thermo Fisher Scientific, cat. 12634028), 10 mM HEPES (Thermo Fisher Scientific, cat. 15630080), 1X GlutaMAX supplement (Thermo Fisher Scientific, cat. 35050061), 0.1 mg/mL primocin (InvivoGen, San Diego, CA, cat. ant-pm-2), 10% defined fetal bovine serum, heat inactivated (HyClone Laboratories Inc., Logan, UT, cat. SH30070.03HI), 50% L-WRN conditioned media (ATCC, cat. CRL-3276), 1.25 mM N-Acetyl-L-cysteine (Sigma-Aldrich, cat. A9165), 10 mM nicotinamide (Sigma-Aldrich, cat. N0636), 1X B-27 supplement (Thermo Fisher Scientific, cat. 17504044), 1X N-2 supplement (Thermo Fisher Scientific, cat. […]
# 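Note: spheroids exposed to compounds for seven days before readout.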
# 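Throughout, for viability, T/C: 100% = DMSO vehicle control viability.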
smiles,measurement,setting,value
O=C(Nc1ccc(O)c(NS(=O)(=O)c2ccc(F)cc2)c1)c1ccc(-c2ccccc2)cc1,"viability, T/C",compound 0.0316 µM,91% and 95.6% and 94.9%
same,"viability, T/C",compound 0.1 µM,95.3% and 90.8% and 94.3%
same,"viability, T/C",compound 0.316 µM,87.2% and 100% and 98.6%
same,"viability, T/C",compound 1 µM,97.2% and 96.6% and 96.2%
same,"viability, T/C",compound 3.16 µM,112% and 107% and 106%
same,"viability, T/C",compound 10 µM,105% and 102% and 101%
same,IC50,curve of compound,> 10 µM
CC1COCCN1c1cc(-c2ccnn2C)c2ccnc(-c3ccn[nH]3)c2n1 (stereo not drawn),"viability, T/C",compound 0.0316 µM,97.4% and 94.7% and 96.7%
same,"viability, T/C",compound 0.1 µM,69.8% and 71.2% and 83.1%
same,"viability, T/C",compound 0.316 µM,51.1% and 45.3% and 54.1%
same,"viability, T/C",compound 1 µM,46.9% and 43.4% and 49.2%
same,"viability, T/C",compound 10 µM,43.8% and 39.4% and 49.2%
COc1cccc2c1C(=O)c1c(O)c3c(c(O)c1C2=O)CC(O)(C(=O)CO)CC3OC1CC(N)C(O)C(C)O1 (stereo not drawn),"viability, T/C",compound 0.0316 µM,94.9% and 90.3% and 99.1%
same,"viability, T/C",compound 0.1 µM,86.6% and 79.9% and 96.6%
same,"viability, T/C",compound 0.316 µM,79.8% and 66.8% and 88%
same,"viability, T/C",compound 1 µM,72.6% and 63.7% and 70.9%
same,"viability, T/C",compound 3.16 µM,65% and 58.3% and 60.4%
same,"viability, T/C",compound 10 µM,52.5% and 69.4% and 49.1%
same,IC50,curve of compound,> 10 µM and 9.81 µM
O=c1[nH]cc(F)c(=O)[nH]1,"viability, T/C",compound 0.0316 µM,94.6% and 117% and 96.9%
same,"viability, T/C",compound 0.1 µM,95% and 114% and 94.2%
same,"viability, T/C",compound 0.316 µM,83.6% and 86.3% and 81%
same,"viability, T/C",compound 1 µM,76.2% and 90.7% and 73%
same,"viability, T/C",compound 3.16 µM,71.1% and 87% and 72.8%
same,"viability, T/C",compound 10 µM,68.4% and 78.9% and 71.5%
same,IC50,curve of compound,> 10 µM
C#Cc1c(F)ccc2cc(O)cc(-c3ncc4c(N5CC6CCC(C5)N6)nc(OCC56CCCN5CC(F)C6)nc4c3F)c12 (stereo not drawn) + Cc1cccc(N(C)C(=O)C2C(O)CCN2c2nc(C)cc(C(F)(F)F)c2C#N)c1,IC50,"curve of first compound, second compound 0.0316 µM",> 10 µM
same,IC50,"curve of first compound, second compound 0.1 µM",> 10 µM
same,IC50,"curve of first compound, second compound 0.316 µM",> 10 µM
same,IC50,"curve of first compound, second compound 1 µM",> 10 µM
same,IC50,"curve of first compound, second compound 3.16 µM",> 10 µM
same,IC50,"curve of first compound, second compound 10 µM",7.64 µM
same,"viability, T/C","second compound 0.0316 µM, first compound 0.0316 µM",92%
same,"viability, T/C","second compound 0.0316 µM, first compound 0.1 µM",86.6%
same,"viability, T/C","second compound 0.0316 µM, first compound 0.316 µM",72.3%
same,"viability, T/C","second compound 0.0316 µM, first compound 1 µM",63.1%
same,"viability, T/C","second compound 0.0316 µM, first compound 3.16 µM",61.9%
same,"viability, T/C","second compound 0.0316 µM, first compound 10 µM",52.5%
same,"viability, T/C","second compound 0.1 µM, first compound 0.0316 µM",100%
same,"viability, T/C","second compound 0.1 µM, first compound 0.1 µM",81.5%
same,"viability, T/C","second compound 0.1 µM, first compound 0.316 µM",72.1%
same,"viability, T/C","second compound 0.1 µM, first compound 1 µM",70.7%
same,"viability, T/C","second compound 0.1 µM, first compound 3.16 µM",59.2%
same,"viability, T/C","second compound 0.1 µM, first compound 10 µM",55%
same,"viability, T/C","second compound 0.316 µM, first compound 0.0316 µM",99%
same,"viability, T/C","second compound 0.316 µM, first compound 0.1 µM",87.6%
same,"viability, T/C","second compound 0.316 µM, first compound 0.316 µM",72%
same,"viability, T/C","second compound 0.316 µM, first compound 1 µM",69.9%
same,"viability, T/C","second compound 0.316 µM, first compound 3.16 µM",61.2%
same,"viability, T/C","second compound 0.316 µM, first compound 10 µM",60.3%
same,"viability, T/C","second compound 1 µM, first compound 0.0316 µM",87.6%
same,"viability, T/C","second compound 1 µM, first compound 0.1 µM",78.1%
same,"viability, T/C","second compound 1 µM, first compound 0.316 µM",72.4%
same,"viability, T/C","second compound 1 µM, first compound 1 µM",66.7%
same,"viability, T/C","second compound 1 µM, first compound 3.16 µM",62%
same,"viability, T/C","second compound 1 µM, first compound 10 µM",51.8%
same,"viability, T/C","second compound 3.16 µM, first compound 0.0316 µM",94.5%
same,"viability, T/C","second compound 3.16 µM, first compound 0.1 µM",80.9%
same,"viability, T/C","second compound 3.16 µM, first compound 0.316 µM",69.8%
same,"viability, T/C","second compound 3.16 µM, first compound 1 µM",65.7%
same,"viability, T/C","second compound 3.16 µM, first compound 3.16 µM",63.2%
same,"viability, T/C","second compound 3.16 µM, first compound 10 µM",52.5%
same,"viability, T/C","second compound 10 µM, first compound 0.0316 µM",81.2%
same,"viability, T/C","second compound 10 µM, first compound 0.1 µM",69.1%
same,"viability, T/C","second compound 10 µM, first compound 0.316 µM",69%
same,"viability, T/C","second compound 10 µM, first compound 1 µM",58.1%
same,"viability, T/C","second compound 10 µM, first compound 3.16 µM",58.2%
same,"viability, T/C","second compound 10 µM, first compound 10 µM",46.7%
